# Test results from patent US10829516B2 (London Health Sciences Centre Research Inc., priority 2015, dated 2020).
# Non-standard residues stand in square brackets, D forms with d. Residues, ends and D or L forms follow the SMILES beside them. *: point of attachment. 1Nal = N[C@@H](Cc1cccc2ccccc12)C(=O)O; d2Nal = N[C@H](Cc1ccc2ccccc2c1)C(=O)O; Benzoyl(4-F) = O=C(c1ccc(F)cc1)*; d2Thi = N[C@H](Cc1cccs1)C(=O)O; Propanoyl(2-F) = CC(F)C(=O)*; Dap = NC[C@H](N)C(=O)O; Aib = CC(C)(N)C(=O)O; Inp = O=C(O)C1CCNCC1
# Target: Human recombinant ghrelin receptor (Homo sapiens, UniProt Q92847)
# Test: Calcium flux dose-response assay (FLIPR TETRA, EMD Millipore GPCRProfiler)
# Type: cell-based
# Conditions: FIGS. 51 and 52, Example 3
# Procedure: Another in vitro assay performed on the 4-fluorobenzoyl agonist [1-Nal^4,Lys^5(4-FB)]G-7039 and the [Lys^5(2-FP)]G-7039 agonist was a calcium flux dose-response assay. […] In this particular case, the biological effect of the peptidomimetic [1-Nal^4,Lys^5(4-FB)]G-7039 and the peptidomimetic [Lys^5(2-FP)]G-7039 is the release of intracellular calcium ions, a process which is detected by fluorescence using a […] instrument.
# If the compound remained soluble 15 minutes after addition, samples were shipped to the EMD Millipore Corporation (15 Research Park Drive, St. Charles, Mo. 63304, USA). […] The agonist assay was performed for a total of 180 seconds. Each assay and assay concentration was performed in duplicate. The data acquired is presented in FIG. 51 ([1-Nal^4,Lys^5(4-FB)]G-7039) and FIG. 52 (Lys^5(2-FP)]G-7039).
# Human recombinant ghrelin receptor, sequence (Q92847 whole entry): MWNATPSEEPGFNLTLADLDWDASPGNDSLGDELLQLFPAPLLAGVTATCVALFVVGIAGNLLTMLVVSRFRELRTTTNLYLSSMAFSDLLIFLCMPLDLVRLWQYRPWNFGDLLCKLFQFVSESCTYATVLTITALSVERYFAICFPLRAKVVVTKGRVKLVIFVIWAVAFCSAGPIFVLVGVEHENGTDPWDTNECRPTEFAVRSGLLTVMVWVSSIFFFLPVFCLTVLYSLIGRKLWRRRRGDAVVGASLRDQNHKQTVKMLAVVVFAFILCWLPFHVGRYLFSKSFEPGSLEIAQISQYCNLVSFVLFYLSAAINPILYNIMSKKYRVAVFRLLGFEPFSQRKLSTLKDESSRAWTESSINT
row,Structure (SMILES),EC50 value compared with ghrelin
1,"CC(F)C(=O)NCCCC[C@H](NC(=O)[C@H](Cc1ccccc1)NC(=O)[C@@H](Cc1ccc2ccccc2c1)NC(=O)[C@@H](Cc1ccc2ccccc2c1)NC(=O)C1CCNCC1)C(N)=O (stereo partly drawn) [Compound 2-FP-G-7039, H-Inp-D-2-Nal-D-2-Nal-Phe-Lys(2-FP)-NH2] (H-[Inp][d2Nal][d2Nal]FK(Propanoyl(2-F))-NH2)",below that of ghrelin
2,"NC(=O)[C@H](CCCCNC(=O)c1ccc(F)cc1)NC(=O)[C@H](Cc1cccc2ccccc12)NC(=O)[C@@H](Cc1ccc2ccccc2c1)NC(=O)[C@@H](Cc1ccc2ccccc2c1)NC(=O)C1CCNCC1 [MMF-01-115-H, H-Inp-D-2-Nal-D-2-Nal-1-Nal-Lys(4-FB)-NH2] (H-[Inp][d2Nal][d2Nal][1Nal]K(Benzoyl(4-F))-NH2)",below that of ghrelin

# Same assay, conditions: chem-1 cells, Fluo-8 NW dye, duplicate; read-out: EC50, intracellular Ca2+ release
row,Structure (SMILES),EC50 [µM]
1,"NC(=O)[C@H](CCCCNC(=O)c1ccc(F)cc1)NC(=O)[C@H](Cc1cccc2ccccc12)NC(=O)[C@@H](Cc1ccc2ccccc2c1)NC(=O)[C@@H](Cc1ccc2ccccc2c1)NC(=O)C1CCNCC1 [MMF-01-115-H, H-Inp-D-2-Nal-D-2-Nal-1-Nal-Lys(4-FB)-NH2] (H-[Inp][d2Nal][d2Nal][1Nal]K(Benzoyl(4-F))-NH2)",0.0011

# Target: T1, GHS-R1a (Homo sapiens, UniProt Q92847)
# T1 construct: expressed in transfected cells; host or cells: HEK293
# Test: Receptor-ligand competitive binding assay, HEK293/GHS-R1a cells with [125I]ghrelin as radioligand
# Conditions: not given
# Procedure: Receptor-Ligand Binding Assay
# Competitive binding assays were run at the Lawson Health Research Institute at St. Joseph's Health Care in London. […] To begin with, a fresh solution of binding buffer (50 ml) was made up by adding HEPES (0.3 g, 25 mM), MgCl2 (0.051 g, 5 mM), CaCl2 (7.4×10^−3 g, 1 mM), EDTA (0.015 g, 2.5 mM) and BSA (0.2 g, 0.4%) to distilled H2O. The resultant solution was mixed over gentle heat. The pH was then adjusted to 7.4 and the solution filtered. Two miniature complete protease inhibitor tablets were then added and the final buffer solution kept on ice.
# After the buffer had been made, assay tubes were labelled and kept on ice during the setup. To assay tubes 1-21, 25-27 and 28-30 was added binding buffer (200 μl, 230 μl and 300 μl respectively). No buffer was added to tubes 22-24. An aliquot of frozen cells was thawed to room temperature, centrifuged (3000×g, 10 mins, room temperature) and the subsequent cell pellet re-suspended in binding buffer (2 ml) and placed on ice. Cells (50 μl) were then added to assay tubes 1-21 and 25-27. Cold peptide was then prepared. This was carried out by adding stock peptide (20 μl) to binding buffer (180 μl) to make a peptide solution of 10^−4M concentration. Binding buffer (180 μl) was then added to assay tubes labelled 10^−5 to 10^−11. A series of dilutions was then made in order to acquire 10^−5 to 10^−11M concentrations. Cold peptide (30 μl) was then added to the corresponding assay tubes in triplicate.
# All assay tubes were then vortexed, capped and immediately agitated (550 rpm, 20 mins, 37° C.). After 20 minutes, tubes 1-21 and 25-27 were spun in a large centrifuge (2800 rpm, 2 mins, 4° C.). The solution in all of the tubes was then transferred to Eppendorf tubes (0.5 ml), further binding buffer added (200 μl), the solutions mixed by pipetting and transferred to 0.5 ml tubes. The tubes were then spun again (13 000×g, 5 mins, 4° C.) and placed on ice. The supernatant was removed and the cell pellet rinsed with ice-cold Tris-HCl (200 μl, 50 mM, pH 7.4) and the tubes mixed by inversion. Tubes were spun a final time (13,000×g, 5 mins, 4° C.), cooled on ice and supernatant removed. The tubes were then placed in 12×75 mm assay tubes and counted using a gamma counter (see protocol 3). The binding assay may be summarized as follows:
# Competitive binding assays were run on the compounds of Table 2 as described in Example 1. The formulas of the compounds of Table 2 are illustrated in FIGS. 49 and 50.
# T1 sequence (Q92847 whole entry): as above
row,Structure (SMILES),IC50 [µM]
1,"NCCCC[C@H](NC(=O)[C@H](Cc1cccc2ccccc12)NC(=O)[C@@H](Cc1ccc2ccccc2c1)NC(=O)[C@@H](Cc1ccc2ccccc2c1)NC(=O)C1CCNCC1)C(N)=O [MMF-01-113-G, H-Inp-D-2-Nal-D-2-Nal-1-Nal-Lys-NH2] (H-[Inp][d2Nal][d2Nal][1Nal]K-NH2)",0.0276
2,"NC(=O)[C@H](CCCCNC(=O)c1ccc(F)cc1)NC(=O)[C@H](Cc1ccccc1)NC(=O)[C@@H](Cc1ccc2ccccc2c1)NC(=O)[C@@H](Cc1ccc2ccccc2c1)NC(=O)C1CCNCC1 [Compound 4-FB-G-7039, H-Inp-D-2-Nal-D-2-Nal-Phe-Lys(4-FB)-NH2] (H-[Inp][d2Nal][d2Nal]FK(Benzoyl(4-F))-NH2)",0.242
3,"C[C@H](NC(=O)[C@@H](Cc1ccc2ccccc2c1)NC(=O)[C@@H](C)N)C(=O)N[C@@H](Cc1c[nH]c2ccccc12)C(=O)N[C@H](Cc1ccccc1)C(=O)N[C@@H](CCCCN)C(N)=O [GHRP-2, H-D-Ala-D-2-Nal-Ala-Trp-D-Phe-Lys-NH2, reference compound] (H-[dA][d2Nal]AW[dF]K-NH2)",0.449
4,"NC(=O)[C@H](CCCCNC(=O)c1ccc(F)cc1)NC(=O)[C@@H](Cc1ccc2ccccc2c1)NC(=O)[C@@H](Cc1ccc2ccccc2c1)NC(=O)[C@H](Cc1c[nH]cn1)NC(=O)C1CCNCC1 [MMF-01-140-H, H-Inp-His-D-2-Nal-D-2-Nal-Lys(4-FB)-NH2] (H-[Inp]H[d2Nal][d2Nal]K(Benzoyl(4-F))-NH2)",1.92
5,"CC(C)(N)C(=O)N[C@@H](Cc1c[nH]cn1)C(=O)N[C@H](Cc1ccc2ccccc2c1)C(=O)N[C@H](Cc1ccccc1)C(=O)N[C@@H](CCCCNC(=O)c1ccc(F)cc1)C(N)=O [4-FB-Ipamorelin, H-Aib-His-D-2-Nal-D-Phe-Lys(4-FB)-NH2] (H-[Aib]H[d2Nal][dF]K(Benzoyl(4-F))-NH2)",0.17
6,"CC(F)C(=O)NCCCC[C@H](NC(=O)[C@H](Cc1ccc(O)cc1)NC(=O)[C@@H](Cc1ccc2ccccc2c1)NC(=O)[C@@H](Cc1ccc2ccccc2c1)NC(=O)C1CCNCC1)C(N)=O (stereo partly drawn) [TL-MF-3-2FP, H-Inp-D-2-Nal-D-2-Nal-Tyr-Lys(2-FP)-NH2] (H-[Inp][d2Nal][d2Nal]YK(Propanoyl(2-F))-NH2)",0.000283
7,"C[C@H](N)C(=O)N[C@@H](Cc1c[nH]cn1)C(=O)N[C@H](Cc1ccc2ccccc2c1)C(=O)N[C@@H](C)C(=O)N[C@@H](Cc1c[nH]c2ccccc12)C(=O)N[C@H](Cc1ccccc1)C(=O)N[C@@H](CCCCN)C(N)=O [GHRP-1, H-Ala-His-D-2-Nal-Ala-Trp-D-Phe-Lys-NH2, reference compound] (H-AH[d2Nal]AW[dF]K-NH2)",0.181
8,"NC(=O)[C@H](CCCCNC(=O)c1ccc(F)cc1)NC(=O)[C@@H](Cc1ccccc1)NC(=O)[C@@H](Cc1ccc2ccccc2c1)NC(=O)[C@H](Cc1c[nH]cn1)NC(=O)C1CCNCC1 [Inp-4-FB-Ipamorelin, H-Inp-His-D-2-Nal-D-Phe-Lys(4-FB)-NH2] (H-[Inp]H[d2Nal][dF]K(Benzoyl(4-F))-NH2)",0.688
9,"CC(C)(N)C(=O)N[C@@H](Cc1c[nH]cn1)C(=O)N[C@H](Cc1ccc2ccccc2c1)C(=O)N[C@H](Cc1cccs1)C(=O)N[C@@H](CCCCNC(=O)c1ccc(F)cc1)C(N)=O [Thi-4-FB-Ipamorelin, H-Aib-His-D-2-Nal-D-2-Thi-Lys(4-FB)-NH2] (H-[Aib]H[d2Nal][d2Thi]K(Benzoyl(4-F))-NH2)",0.161
10,"CC(F)C(=O)NCCCC[C@H](NC(=O)[C@H](CO)NC(=O)[C@@H](Cc1ccc2ccccc2c1)NC(=O)[C@@H](Cc1ccc2ccccc2c1)NC(=O)C1CCNCC1)C(N)=O (stereo partly drawn) [TL-MF-2-2FP, H-Inp-(D-2-Nal)2-Ser-Lys(2-FP)-NH2] (H-[Inp][d2Nal][d2Nal]SK(Propanoyl(2-F))-NH2)",0.0603
11,"C[C@H](NC(=O)[C@@H](Cc1c[nH]c2ccccc12)NC(=O)[C@@H](N)Cc1c[nH]cn1)C(=O)N[C@@H](Cc1c[nH]c2ccccc12)C(=O)N[C@H](Cc1ccccc1)C(=O)N[C@@H](CCCCNC(=O)c1ccc(F)cc1)C(N)=O [Compound 4-FB-GHRP-6, H-His-D-Trp-Ala-Trp-D-Phe-Lys(4-FB)-NH2] (H-H[dW]AW[dF]K(Benzoyl(4-F))-NH2)",0.384
12,"NCCCC[C@H](NC(=O)[C@H](Cc1ccccc1)NC(=O)[C@@H](Cc1ccc2ccccc2c1)NC(=O)[C@@H](Cc1ccc2ccccc2c1)NC(=O)C1CCNCC1)C(N)=O [Compound G-7039, H-Inp-D-2-Nal-D-2-Nal-Phe-Lys-NH2, reference compound] (H-[Inp][d2Nal][d2Nal]FK-NH2)",0.00521
13,"C[C@H](NC(=O)[C@@H](Cc1c[nH]c2ccccc12)NC(=O)[C@@H](N)Cc1c[nH]cn1)C(=O)N[C@@H](Cc1c[nH]c2ccccc12)C(=O)N[C@H](Cc1ccccc1)C(=O)N[C@@H](CNC(=O)c1ccc(F)cc1)C(N)=O [Dpr-4-FB-GHRP-6, H-His-D-Trp-Ala-Trp-D-Phe-Dpr(4-FB)-NH2] (H-H[dW]AW[dF][Dap](Benzoyl(4-F))-NH2)",1.06
14,"CC(F)C(=O)NCCCC[C@H](NC(=O)[C@H](CO)NC(=O)[C@H](Cc1ccccc1)NC(=O)[C@@H](Cc1ccc2ccccc2c1)NC(=O)[C@@H](Cc1ccc2ccccc2c1)NC(=O)C1CCNCC1)C(N)=O (stereo partly drawn) [TL-MF-4-2FP, H-Inp-(D-2-Nal)2-Phe-Ser-Lys(2-FP)-NH2] (H-[Inp][d2Nal][d2Nal]FSK(Propanoyl(2-F))-NH2)",0.00435
15,"NC(=O)[C@H](CCCCNC(=O)c1ccc(F)cc1)NC(=O)[C@@H](Cc1cccs1)NC(=O)[C@@H](Cc1ccc2ccccc2c1)NC(=O)[C@H](Cc1c[nH]cn1)NC(=O)C1CCNCC1 [Inp-Thi-4-FB-Ipamorelin, H-Inp-His-D-2-Nal-D-2-Thi-Lys(4-FB)-NH2] (H-[Inp]H[d2Nal][d2Thi]K(Benzoyl(4-F))-NH2)",1.17
16,"CC(F)C(=O)NCCCC[C@H](NC(=O)[C@H](Cc1ccccc1)NC(=O)[C@H](CO)NC(=O)[C@@H](Cc1ccc2ccccc2c1)NC(=O)[C@@H](Cc1ccc2ccccc2c1)NC(=O)C1CCNCC1)C(N)=O (stereo partly drawn) [TL-MF-5-2FP, H-Inp-(D-2-Nal)2-Ser-Phe-Lys(2-FP)-NH2] (H-[Inp][d2Nal][d2Nal]SFK(Propanoyl(2-F))-NH2)",0.0629
17,"CC(C)(N)C(=O)N[C@@H](Cc1c[nH]cn1)C(=O)N[C@H](Cc1ccc2ccccc2c1)C(=O)N[C@H](Cc1ccccc1)C(=O)N[C@@H](CCCCN)C(N)=O [Ipamorelin, H-Aib-His-D-2-Nal-D-Phe-Lys-NH2, reference compound] (H-[Aib]H[d2Nal][dF]K-NH2)",0.483
18,"NC(=O)[C@H](CCCCNC(=O)c1ccc(F)cc1)NC(=O)[C@H](Cc1cccc2ccccc12)NC(=O)[C@@H](Cc1ccc2ccccc2c1)NC(=O)[C@@H](Cc1ccc2ccccc2c1)NC(=O)C1CCNCC1 [MMF-01-115-H, H-Inp-D-2-Nal-D-2-Nal-1-Nal-Lys(4-FB)-NH2] (H-[Inp][d2Nal][d2Nal][1Nal]K(Benzoyl(4-F))-NH2)",0.0688

# System: GH release
# Test: not given
# Conditions: Elias et al., Endocrinology 1995, read-out: EC50, reported half-maximal effective concentration; cited from earlier work
row,Structure (SMILES),EC50 [µM]
1,"NCCCC[C@H](NC(=O)[C@H](Cc1ccccc1)NC(=O)[C@@H](Cc1ccc2ccccc2c1)NC(=O)[C@@H](Cc1ccc2ccccc2c1)NC(=O)C1CCNCC1)C(N)=O [Compound G-7039, H-Inp-D-2-Nal-D-2-Nal-Phe-Lys-NH2, reference compound] (H-[Inp][d2Nal][d2Nal]FK-NH2)",0.00018
